Patent publication US20130045952A1, “ABA Receptor Agonists for Increased Plant Stress Resistance” (Van Andel Research Institute, priority 2011, published 2013)

What was measured:
[1] = molecular target: T1, PYR1 (Arabidopsis thaliana, UniProt O49686); conditions: in vivo; cited from earlier work
T1 sequence (O49686 1-191): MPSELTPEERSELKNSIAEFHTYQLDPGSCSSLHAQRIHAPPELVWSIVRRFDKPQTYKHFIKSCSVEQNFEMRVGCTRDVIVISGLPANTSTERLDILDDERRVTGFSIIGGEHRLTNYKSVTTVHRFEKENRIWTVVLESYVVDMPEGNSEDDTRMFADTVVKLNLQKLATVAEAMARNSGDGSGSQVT

[2] = molecular target: T2, PYL2 A93F (Arabidopsis thaliana, UniProt O80992, A93F); test: PP2C binding and phosphatase assays of mutant PYL2 A93F; assay type: biochemical
T2 construct: PYL2 (residues 14-188), and HAB1 (residues 172-511) were prepared as recombinant proteins in E. coli; made in house; host or cells: E. coli (stated for PYL2 in general)
Source text: The closest distance between the pyridine ring of pyrabactin and the LPA gating residues is 4.8 Å-7.0 Å when the LPA loop assumes the ABA-bound closed conformation, but is 11-13 Å when the LPA gate is in open conformation. In contrast, the distance of the naphthalene double ring of pyrabactin or the cyclohexene ring of ABA to the three side chains of the LPA gate in the PYL1 structure is 3.4-4.6 Å, a range for strong Van der Waals interactions, thus helping to keep the LPA gate in the closed conformation. […] To validate this hypothesis, we changed the alanine in the LPA loop to a larger residue. […] As expected from structural modeling, replacement of the gate residue A93 with the bulky phenylalanine ring also abrogated ABA to promote PYL2 activation.
Mutant proteins were expressed as H6GST-fusion proteins and purified by glutathione sepharose chromatography. Protein-protein interactions were determined by luminescence proximity AlphaScreen assay. Biotinylated PP2C proteins for the luminescence proximity assay were generated by in vivo biotinylation of avitag-PP2C fusion proteins. PP2C phosphatase activity was measured by phosphate release from a SnRK2.6 phosphoprotein.
Site-directed mutagenesis was carried out using the QuickChange method (Stratagene). Mutations and all plasmid constructs were confirmed by sequencing.

T2 sequence (O80992 14-188 A93F): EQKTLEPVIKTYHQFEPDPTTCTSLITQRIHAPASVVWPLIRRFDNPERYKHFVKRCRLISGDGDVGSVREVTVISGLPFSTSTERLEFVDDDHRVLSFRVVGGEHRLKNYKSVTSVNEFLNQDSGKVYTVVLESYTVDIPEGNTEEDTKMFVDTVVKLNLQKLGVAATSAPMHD

SMILES: O=S(=O)(NCc1ccccn1)c1ccc(Br)c2ccccc12 [Pyrabactin, pyrabactin]
- Activity at PYR1 in a seed germination assay [1]: selective agonist
- Activation of mutant PYL2 A93F receptor [2]: pyrabactin-activated receptor
